# Measurements: publication PMC10095932 (Molecules, 2023)
# pEC50: −log10 of the molar value. Entries after “also recorded” stand apart in the source; their conditions may differ. Where a SMILES comes first, the peptide text is derived from it. Bridges are numbered along the chain shown (N, C = ends).
# Tests used:
# [1] = system: Neutral endopeptidase 24.11 (NEP); experiment: 500 ng NEP (activity 400 pmol min^−1 μg^−1) in 100 mM Tris.HCl and 150 mM NaCl (pH 7.4); settings: 37 °C, up to 24 h
# [2] = cited from earlier work
# Description: In humans, the NP system consists primarily of three main peptides, A-type or atrial natriuretic peptide (ANP), B-type or brain natriuretic peptide (BNP), and C-type natriuretic peptide (CNP). Distinct variations in the expression levels of each NP correlates strongly with normal physiological and disease conditions. Due to their importance in cardio-renal diseases these peptides have been extensively studied. Structurally, the NP family is characterized by a 17-residue ring structure with a highly conserved internal sequence and variable N- and C-terminal regions. W ...
# rat NPR-A = target: T1, rat NPR-A (Rattus norvegicus, UniProt P18910); experiment: cGMP ALPHAscreen, cGMP production in PC12 cells; assay type: cell-based
# T1 construct: endogenous in cells; host or cells: rat PC12 cells
# T1 sequence (P18910 29-1057): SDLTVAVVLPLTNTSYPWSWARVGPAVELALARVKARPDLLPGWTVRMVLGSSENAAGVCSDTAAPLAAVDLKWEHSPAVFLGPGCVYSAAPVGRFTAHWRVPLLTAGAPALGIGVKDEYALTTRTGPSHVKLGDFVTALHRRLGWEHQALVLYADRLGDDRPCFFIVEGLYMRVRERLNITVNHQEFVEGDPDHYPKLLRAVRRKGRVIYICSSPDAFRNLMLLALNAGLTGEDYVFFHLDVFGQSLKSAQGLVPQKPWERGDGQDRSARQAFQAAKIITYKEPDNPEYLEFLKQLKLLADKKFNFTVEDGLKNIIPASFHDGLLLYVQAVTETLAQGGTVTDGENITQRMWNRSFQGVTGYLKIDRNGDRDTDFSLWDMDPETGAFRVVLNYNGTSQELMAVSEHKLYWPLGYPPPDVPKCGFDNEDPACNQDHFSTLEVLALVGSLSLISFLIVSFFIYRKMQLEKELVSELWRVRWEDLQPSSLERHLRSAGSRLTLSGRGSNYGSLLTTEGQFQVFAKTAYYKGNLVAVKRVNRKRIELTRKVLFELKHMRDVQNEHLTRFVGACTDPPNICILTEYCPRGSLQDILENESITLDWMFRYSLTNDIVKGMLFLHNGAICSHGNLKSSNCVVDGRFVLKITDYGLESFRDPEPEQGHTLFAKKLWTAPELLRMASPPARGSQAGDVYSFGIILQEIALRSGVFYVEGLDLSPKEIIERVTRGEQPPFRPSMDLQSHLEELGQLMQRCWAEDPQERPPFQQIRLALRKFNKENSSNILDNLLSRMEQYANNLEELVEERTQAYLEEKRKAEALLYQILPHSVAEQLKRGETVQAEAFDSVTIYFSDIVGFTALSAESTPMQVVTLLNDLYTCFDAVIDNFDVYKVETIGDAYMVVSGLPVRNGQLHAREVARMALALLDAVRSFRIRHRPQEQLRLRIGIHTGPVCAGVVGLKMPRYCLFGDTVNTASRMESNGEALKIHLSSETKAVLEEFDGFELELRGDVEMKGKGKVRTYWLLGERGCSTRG
# Experimental: NP activity can be determined by the effectiveness of the peptide to elicit cGMP production through NPR-A. The cGMP ALPHAscreen evaluates the ability of peptides to stimulate cGMP production in cells through a non-radioactive, homogenous, proximity assay which encompasses […]. […] In order to evaluate the potency of TNPa-e at rNPR-A, TNPa-e were evaluated using the cGMP ALPHAscreen in rat PC12 cells.
# (§1) Cells were cultured at 5% CO2 and 37 °C. HEK 293 cells were cultured in high glucose DMEM (Gibco, Carlsbad, CA, USA) supplemented with 10% FBS, and 1% penicillin/streptomycin. HEK 293 cells were seeded in media lacking penicillin/streptomycin 24 to 48 h pre-transfection. PC12 cells were cultured in high glucose DMEM (Gibco) supplemented with 10% FBS and 1% penicillin/streptomycin.
# (§2) The cGMP ALPHAscreen was performed using the ALPHAscreen Protein A detection kit and the biotinylated cGMP supplement (Perkin Elmer, Waltham, MA, USA) with rabbit anti-cGMP polyclonal antibody (Biovision, Mountain View, CA, USA). Cells were detached from the flask and the resulting pellet was resuspended in stimulation buffer (HBSS supplemented with 0.1% w/v BSA and 1 mM IBMX at 37 °C). Cells were added to a white 384-well Optiplate (Perkin Elmer, Waltham, USA) to 30,000 cells per well for HEK 293 cells and 10,000 cells per well for PC12 cells. Cells were incubated with different concentrations of test peptides (concentration range of 1 × 10^−5 to 1 × 10^−11 M in stimulation buffer) at 37 °C for 30 min. Cells were lysed with lysis buffer (1 M HEPES, 0.3% Tween-20, 1% BSA in H2O, pH 7.4). Then 5 μL acceptor-bead mix was added to each well under subdued lighting conditions, followed by 5 μL of donor-bead mix. Plates were incubated for ~12 h, slowly shaking at room temperature. After incubation, the ALPHAscreen signal was measured using an EnVision plate reader (Perkin Elmer). The standard curve consisted of cGMP in a concentration range of 1 × 10^−6 to 1 × 10^−12 M. All data points were acquired in triplicate and were analyzed using GraphPad Prism 5.0 software (GraphPad Software, Inc., San Diego, CA, USA).
# human NPR-A = target: T2, human NPR-A (Homo sapiens, UniProt P16066); experiment: cGMP ALPHAscreen, cGMP production in HEK 293 cells transiently overexpressing hNPR-A; assay type: cell-based; settings: HEK 293 cells overexpressing hNPR-A
# T2 construct: expressed in transfected cells; host or cells: HEK 293 cells, transient, Lipofectamine 2000
# T2 sequence (P16066 33-1061): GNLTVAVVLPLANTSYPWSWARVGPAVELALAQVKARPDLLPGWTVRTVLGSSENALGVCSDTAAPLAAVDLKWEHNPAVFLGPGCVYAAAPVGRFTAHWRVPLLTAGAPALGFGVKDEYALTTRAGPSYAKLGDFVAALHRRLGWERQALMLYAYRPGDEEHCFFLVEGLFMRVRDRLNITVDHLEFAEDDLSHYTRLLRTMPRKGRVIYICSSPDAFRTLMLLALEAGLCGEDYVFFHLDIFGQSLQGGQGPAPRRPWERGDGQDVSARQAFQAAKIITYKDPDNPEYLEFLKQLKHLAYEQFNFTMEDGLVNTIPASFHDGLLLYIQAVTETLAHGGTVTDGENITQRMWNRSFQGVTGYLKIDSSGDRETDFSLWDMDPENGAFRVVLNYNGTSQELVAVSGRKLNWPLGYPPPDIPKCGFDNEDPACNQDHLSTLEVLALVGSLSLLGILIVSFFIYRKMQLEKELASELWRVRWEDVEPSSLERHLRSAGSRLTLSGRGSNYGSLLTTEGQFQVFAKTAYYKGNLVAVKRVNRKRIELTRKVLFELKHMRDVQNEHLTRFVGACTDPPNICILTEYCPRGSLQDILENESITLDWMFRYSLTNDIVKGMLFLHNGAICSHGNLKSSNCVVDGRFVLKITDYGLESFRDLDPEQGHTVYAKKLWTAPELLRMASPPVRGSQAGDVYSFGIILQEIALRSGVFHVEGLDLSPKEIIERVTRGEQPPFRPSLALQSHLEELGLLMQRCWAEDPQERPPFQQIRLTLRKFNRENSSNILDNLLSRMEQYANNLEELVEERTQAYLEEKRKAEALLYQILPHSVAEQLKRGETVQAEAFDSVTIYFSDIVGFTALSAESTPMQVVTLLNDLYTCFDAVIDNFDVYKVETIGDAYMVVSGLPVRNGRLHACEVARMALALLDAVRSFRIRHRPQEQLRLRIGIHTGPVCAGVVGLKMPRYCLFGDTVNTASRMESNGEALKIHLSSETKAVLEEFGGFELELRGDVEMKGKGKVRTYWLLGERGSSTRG
# Experimental: as §1
# HEK 293 cells were transfected using the lipofectamine 2000 transfection protocol (Invitrogen). Cells (95% confluence) were transfected with 45% pcDNA3.1/hNPR-A, 45% pcDNA3.1, and 10% pEGFP-NI to the optimal DNA concentration specified in the protocol. The co-transfection with pEGFP-NI plasmid allowed the determination of the transfection efficiency. This was assessed by the estimation of the number of GFP-expressing cells using an Olympus IX70 inverted fluorescence microscope. Transfected cells were used for assay purposes within 24 h.
# as §2
compound,measurement,setting,value
SDSKIGNGCFGFPLDRIGSVSGLGCNRIMQNPPKKFSGE,cleaved bond,[1],"Lys35-Phe36, major, after 24 h; also recorded: Cys9-Phe10, major, after 24 h; also recorded: Arg27-Ile28, major, after 24 h"
CC[C@H](C)[C@@H]1NC(=O)[C@H](CCCNC(=N)N)NC(=O)[C@H](CC(=O)O)NC(=O)[C@H](CCSC)NC(=O)[C@H](CCCCN)NC(=O)[C@H](CCCNC(=N)N)NC(=O)CNC(=O)[C@H](Cc2ccccc2)NC(=O)[C@@H](NC(=O)CNC(=O)[C@H](CO)NC(=O)CNC(=O)[C@H](CCC(N)=O)NC(=O)[C@@H](NC(=O)[C@H](CCSC)NC(=O)[C@H](CCCCN)NC(=O)[C@@H]2CCCN2C(=O)[C@@H](N)CO)C(C)C)CSSC[C@@H](C(=O)N[C@@H](CCCCN)C(=O)N[C@H](C(=O)N[C@@H](CC(C)C)C(=O)N[C@@H](CCCN=C(N)N)C(=O)N[C@@H](CCCN=C(N)N)C(=O)N[C@@H](Cc2cnc[nH]2)C(=O)O)C(C)C)NC(=O)CNC(=O)[C@H](CC(C)C)NC(=O)CNC(=O)[C@H](CO)NC(=O)[C@H](CO)NC(=O)[C@H](CO)NC(=O)[C@H](CO)NC1=O [hBNP],half-life in plasma,[2],22 min
"CC[C@H](C)[C@@H]1NC(=O)[C@H](CCCNC(=N)N)NC(=O)[C@H](CC(=O)O)NC(=O)[C@H](CCSC)NC(=O)[C@H](CCCNC(=N)N)NC(=O)CNC(=O)CNC(=O)[C@H](Cc2ccccc2)NC(=O)[C@@H](NC(=O)[C@H](CO)NC(=O)[C@H](CO)NC(=O)[C@H](CCCNC(=N)N)NC(=O)[C@H](CCCNC(=N)N)NC(=O)[C@H](CC(C)C)NC(=O)[C@@H](N)CO)CSSC[C@@H](C(=O)N[C@@H](CC(N)=O)C(=O)N[C@@H](CO)C(=O)N[C@@H](Cc2ccccc2)C(=O)N[C@@H](CCCNC(=N)N)C(=O)N[C@@H](Cc2ccc(O)cc2)C(=O)O)NC(=O)CNC(=O)[C@H](CC(C)C)NC(=O)CNC(=O)[C@H](CO)NC(=O)[C@H](CCC(N)=O)NC(=O)[C@H](C)NC(=O)CNC1=O [hANP, human atrial natriuretic peptide]",half-life in plasma,[2],3 min
CC[C@H](C)[C@@H]1NC(=O)[C@H](CCCNC(=N)N)NC(=O)[C@H](CC(=O)O)NC(=O)[C@H]([C@@H](C)CC)NC(=O)[C@@H]2CCCN2C(=O)[C@H](Cc2ccccc2)NC(=O)CNC(=O)[C@H](Cc2ccccc2)NC(=O)[C@@H](NC(=O)CNC(=O)[C@H](CC(N)=O)NC(=O)CNC(=O)[C@@H](NC(=O)[C@H](CCCCN)NC(=O)[C@@H]2CCCN2C(=O)[C@H](CC(=O)O)NC(=O)[C@@H](N)CO)[C@@H](C)CC)CSSC[C@@H](C(=O)N[C@@H](CC(N)=O)C(=O)N[C@@H](CCCNC(=N)N)C(=O)N[C@@H](CC(C)C)C(=O)N[C@H](C(=O)N[C@@H](CCC(N)=O)C(=O)N[C@@H](CC(N)=O)C(=O)N2CCC[C@H]2C(=O)N2CCC[C@H]2C(=O)N[C@@H](CCCCN)C(=O)N2CCC[C@H]2C(=O)N[C@H](C(=O)N[C@@H](CO)C(=O)NCC(=O)N[C@@H](CCC(=O)O)C(=O)N[C@@H](CO)C(=O)O)[C@@H](C)CC)C(C)C)NC(=O)CNC(=O)[C@H](CC(C)C)NC(=O)CNC(=O)[C@H](CO)NC(=O)[C@H](C(C)C)NC(=O)[C@H](CO)NC(=O)CNC1=O [TNPd] (H-SDPKIGNGCFGFPIDRIGSVSGLGCNRLVQNPPKPISGES-OH; disulfide 9-25),pEC50,"rat NPR-A; PC12 cells, 30 min at 37 °C, cGMP ALPHAscreen, three to five separate experiments in triplicate, read-out: rNPR-A EC50 (95% CI), potency to stimulate cGMP production",7.74
same,selectivity / difference in potency for rNPR-A over hNPR-A,rat NPR-A; rNPR-A (PC12) versus hNPR-A (HEK 293) cGMP potency,560 fold
same,Emax at 10 µM,"human NPR-A; HEK293, read-out: cGMP production, % of the maximum response (compared with DNP, hANP, hBNP), at 10 μM",~30%
same,pEC50,"human NPR-A; 30 min at 37 °C, cGMP ALPHAscreen, three separate experiments in triplicate, read-out: hNPR-A EC50 (95% CI), potency to stimulate cGMP production",< 5.00
